How the values were obtained:
hexobarbital oxidase [1] = assay: Enzyme-inducing potency: in vivo hexobarbital oxidase activity (duration of hexobarbital narcosis); parameters: species or system Female Wistar rats; settings: 24 hours before hexobarbital
Procedure: […] 24 and 48 hours after the administration of the active agent, respectively, the animals were narcotized with 40 mg./kg. i.v. dosage of hexobarbital sodium, and the time elapsed until complete wakening was measured (Noordhock, J.: Eur. J. Pharmacol. 3, 242, 1968). The data were recorded, and the mean values, the standard errors, as well as the percentage increase with respect to the controls were calculated for each group. […] The hexobarbital concentration of the plasma, measured on the instant of wakening, was the same for both the treated and the control animals, thus the increase of narcosis period was not due to a certain central nervous interaction (Jori, A., Bianchatti, A., Presentini, P. E.: Biochem. Pharmacol. 19, 2687, 1970).
The enzyme-inducing potency of the new compounds was determined by several methods. One of these methods was the in vivo measurement of hexobarbital oxidase activity.
The decrease of narcosis period is due to the fact that the new compounds according to the invention accelerate the elimination of hexobarbital, a foreign substance, from the body. When administering the compound to be tested in a single dosage and measuring the duration of hexobarbital narcosis 24 hours after the administration, the following results are obtained: […]

central nervous system = format: in vivo, mice and rats; settings: in words; in contrast with phenobarbital
Text: The central nervous activities of the compounds according to the invention were examined on mice and rats with the following methods: electroshock (Swinyard, E. A., Brown, W. C., Goodman, L. S.: J. Pharmacol. Exp. Ther. 106, 319, 1952), metrazol spasm (Everett, G. M., Richards, R. K.: J. Pharmacol. Exp. Ther. 81, 402: 1944), thiosemicarbezide spasm (Da Venzo, J. P. Greig, M. E., Cormin, M. A.: Amer. J. Physiol. 201, 833: 1961), strychnine spasm (Kerley, T. L., Richards, A. G., Begley, R. W., Abreu, B. B. Wesver, L. C.: J. Pharmacol. Exp. Ther. 132, 360: 1961), nicotine spasm (Stone, C. A., Mecklenburg, K. L., Torhans, M. L.: Arch. Int. Pharmacodyn. 117, 419: 1958), rotarod test (Kinnard, W. C., Carr, C. J.: J. Pharmacol. Expt. Ther. 121, 3, 54: 1957), physistigmine lethality preventing effect (Nose, T., Kojima, M.: Europ. J. Pharmacol. 10, 83: 1970), yohimbine potentiation effect (Quinton, R. M.: Brit. J. Pharmacol. 21, 51: 1963), and analgesic activity (Bianchi, G., Franceschini, J.: Brit. J. Pharm. Chemother. 9, 280: 1954). As reference substance, phenobarbital was used. […]

[2] = test system: UDP-glucoronyltransferase; assay: UDP-glucuronyltransferase activity of liver tissues removed from pre-treated animals (bilirubin conjugation); format: in vivo; settings: liver tissues of pre-treated animals incubated with bilirubin
Procedure: In an in vivo test, liver tissues removed from animals pre-treated with compounds of the formula (I) were incubated in the presence of bilirubin, in order to determine the UDP-glucoronyltransferase activity of the liver tissues (Adlard, B. P. F., Lester, R. G., Lathe, G. H.: Biochem Pharmacol. 18, 59, 1969).

[3] = Toxicity: perished animals/tested animals; format: in vivo
Text: Despite its disadvantageous properties, phenobarbital is widely used in the treatment of neonatal jaundice. In order to enable a better comparison, Table 8 indicates the respective dosages in which phenobarbital causes lethal respiration paralysis, while the compounds according to the invention are completely innocuous.

bilirubin elimination = assay: Bilirubin elimination under in vivo conditions; parameters: species or system rats
Procedure: When examining the bilirubin elimination under in vivo conditions on rats pre-treated with E 15 or phenobarbital, respectively, and challenged intravenously with a dosage of 30 mg./kg. of free bilirubin, the following biological halving periods were determined (Krueger, H., Higginson, J.: Proc. Soc. Exp. Biol. Med. 107, 43, 1961): […]

[4] = test system: liver microsomal enzyme system; assay: Biological halving period of hexobarbital and hexobarbital concentration at wakening; format: in vivo; settings: pre-treated 24 hours prior to hexobarbital; female rats 150 g
[5] = test system: liver microsomal enzyme system; assay: Promotion or inhibition of the liver microsomal enzyme system; format: in vivo; settings: in words
Text: Tests per the methods described herein have shown compounds to be either effective in the promotion or inhibition of the liver microsomal enzyme system as follows: […]

[6] = test system: bromosulfophthalein elimination; assay: Bromosulfophthalein (BSP) concentration of the plasm after pre-treatment; format: in vivo; settings: 24 hours after pre-treatment; after i.v. bromsulfophthaleine
Procedure: The bromosulfophthalein (BSP) concentration of the plasm was determined 24 hours after pre-treatment with the compounds of the formula (I) and after the intravenous administration of bromsulfophthaleine, respectively (Varga, F., Fisher, E.: Acta Physiol. Hung. 36, 431, 1969).

meprobamate elimination = assay: Biological halving period of meprobamate after pre-treatment; format: in vivo; settings: 24 hours after pre-treatment
Procedure: The biological halving period of meprobamate was determined 24 hours after pre-treatment with the compounds of the formula (I) (Ludwig, B. J., Hoffman, A. J.; Arch. Biochem. 72, 234, 1957).

hexobarbital oxidase [7] = assay: Enzyme inhibiting ability in vivo: change of hexobarbital oxidase activity (hexobarbital narcosis period); parameters: species or system Female Wistar rats; settings: in words, even 48 hours after administration
Procedure: Female Wistar rats, each weighing 80 to 100 g., were treated orally with a single 0.3 mM/kg. dosage of the active agent. 24 and 48 hours after the administration of the active agent, respectively, the animals were narcotized with 40 mg./kg. i.v. dosage of hexobarbital sodium, and the time elapsed until complete wakening was measured (Noordhock, J.: Eur. J. Pharmacol. 3, 242, 1968). The data were recorded, and the mean values, the standard errors, as well as the percentage increase with respect to the controls were calculated for each group. […] The hexobarbital concentration of the plasma, measured on the instant of wakening, was the same for both the treated and the control animals, thus the increase of narcosis period was not due to a certain central nervous interaction (Jori, A., Bianchatti, A., Presentini, P. E.: Biochem. Pharmacol. 19, 2687, 1970).

Row | SMILES | Sleeping period ± standard error (hexobarbital oxidase [1]; 5 mg./kg. single dosage) | Sleeping period ± standard error (hexobarbital oxidase [1]; 10 mg./kg. single dosage) | Sleeping period ± standard error (hexobarbital oxidase [1]; 20 mg./kg. single dosage) | Sleeping period ± standard error (hexobarbital oxidase [1]; 40 mg./kg. single dosage) | Central nervous effects (central nervous system) | Conjugated bilirubine [2] [µg/g/h] | Perished animals/tested animals ([3]; 40 mg./kg) | Perished animals/tested animals ([3]; 80 mg./kg) | Perished animals/tested animals ([3]; 160 mg./kg) | Perished animals/tested animals ([3]; 320 mg./kg) | Perished animals/tested animals ([3]; 640 mg./kg) | Effect on the liver microsomal enzyme system (inducing or inhibiting) [5] | Potency among the enzyme inducing or inhibiting compounds [5] | Duration and strength of inducing effect compared with phenobarbital [5] | BSP concentration of the plasm [6] [μg./mg. plasm] | Inhibition of the microsomal enzyme / xenobiotic elimination, duration (hexobarbital oxidase [7]) | further results
1 | CCC(O)(c1ccccc1)c1cccc(C(F)(F)F)c1 (stereo not drawn) [E 15, 3-Trifluoromethyl-α-ethyl-benzhydrol] | 18.0 ± 1.7 | 14.2 ± 1.5 | 10.6 ± 1.2 | 8.8 ± 0.9 | no central nervous effects | 37.4 ± 3.6 | 0/10 | 0/10 | 0/10 | 0/10 | 0/10 | particularly advantageous inducing effect | particularly potent | reaches that of phenobarbital | 5.0 | – | t1/2 (biological halving period of bilirubin) (bilirubin elimination; pre-treated rats, 30 mg./kg. free bilirubin i.v.): 7 min; Acceleration of bilirubin elimination compared with phenobarbital (bilirubin elimination; rats, in words): about twice stronger than that of phenobarbital; t1/2 (biological halving period of hexobarbital) [4]: 23 min.; t1/2 (biological halving period of meprobamate) (meprobamate elimination): 2.1 hours
2 | CCC(O)(c1ccccc1)c1ccccc1OC (stereo not drawn) [E 16, 2-methoxy-α-ethyl-benzhydrol] | – | – | – | – | – | – | – | – | – | – | – | – | particularly potent | – | – | inhibit the elimination of xenobiotic agents and the inactivation thereof in the liver for a long time | Inhibition of the microsomal enzyme / xenobiotic elimination, duration (hexobarbital oxidase [7]; listed as 2-methoxy-α-ethylbenzhydrol): long-lasting inhibition, the degree of which remains significant even 48 hours after administration
3 | CCC(O)(c1ccccc1)c1cc(C)ccc1C (stereo not drawn) [E 20, 2,5-dimethyl-α-ethyl-benzhydrol] | 23.8 ± 1.9 | 18.76 ± 1.9 | – | 13.0 ± 1.2 | no central nervous effects | 35.1 ± 2.6 | – | – | – | – | – | particularly advantageous inducing effect | particularly potent | reaches that of phenobarbital | – | – | –
4 | CCN(CC)CCOc1ccc(C(O)(CC)c2ccccc2)cc1 (stereo not drawn) [E 17, 4-(β-diethylaminoethoxy)-α-ethyl-benzhydrol] | – | – | – | – | – | – | – | – | – | – | – | – | particularly potent | – | – | inhibit the elimination of xenobiotic agents and the inactivation thereof in the liver for a long time | Inhibition of the microsomal enzyme / xenobiotic elimination, duration (hexobarbital oxidase [7]; listed as 4-(β-diethylaminoethoxy)-α-ethyl-benzhydrol): long-lasting inhibition, the degree of which remains significant even 48 hours after administration
5 | C=CC(O)(c1ccccc1)c1ccc(Cl)c(Cl)c1 (stereo not drawn) [3,4-dichloro-α-vinylbenzhydrol, 3,4-dichloro-α-vinyl-benzhydrol] | – | – | – | – | – | – | – | – | – | – | – | – | particularly potent | – | – | – | –
6 | CCC(O)(c1ccccc1)c1ccc(Cl)cc1Cl (stereo not drawn) [E 11, 2,4-dichloro-α-ethyl-benzhydrol] | 22.0 ± 2.1 | 16.4 ± 1.6 | 15.0 ± 1.4 | 13.0 ± 1.2 | no central nervous effects | 35.7 ± 2.8 | 0/10 | 0/10 | 0/10 | 0/10 | 0/10 | particularly advantageous inducing effect | – | reaches that of phenobarbital | 5.4 | – | t1/2 (biological halving period of hexobarbital) [4]: 26 min.; t1/2 (biological halving period of meprobamate) (meprobamate elimination): 2.8 hours
7 | C=CC(O)(c1ccccc1)c1ccc(OC)cc1OC (stereo not drawn) [2,4-dimethoxy-α-vinylbenzhydrol, 2,4-dimethoxy-α-vinyl-benzhydrol] | – | – | – | – | – | – | – | – | – | – | – | – | particularly potent | – | – | long-lasting inhibition, the degree of which remains significant even 48 hours after administration | –
8 | CCC(O)(c1ccccc1)c1cccc(Cl)c1 (stereo not drawn) [E 9, 3-chloro-α-ethyl-benzhydrol] | 21.7 ± 2.0 | 15.2 ± 1.4 | 13.6 ± 1.4 | 12.4 ± 1.2 | no central nervous effects | 36.7 ± 3.2 | 0/10 | 0/10 | 0/10 | 0/10 | 0/10 | particularly advantageous inducing effect | – | reaches that of phenobarbital | 7.6 | – | –
9 | C=CC(O)(c1ccccc1)c1ccccc1F (stereo not drawn) [2-fluoro-α-vinyl-benzhydrol, 2-Fluoro-α-vinyl-benzhydrol] | – | – | – | – | no central nervous effects | – | – | – | – | – | – | particularly advantageous inducing effect | – | reaches that of phenobarbital | – | – | –

Source: patent publication US4094908A, “Alpha-substituted benzhydrol derivatives” (Richter Gedeon Vegyeszeti Gyar Rt., priority 1973, dated 1978)
